Patent publication US20220226508A1, “METHODS AND COMPOSITIONS FOR TREATING EPILEPSY” (THE REGENTS OF THE UNIVERSITY OF CALIFORNIA, priority 2019, published 2022)
Entries after “also recorded” stand apart in the source; their conditions may differ. Read-outs that look alike come from different tables or passages of the source.

Key:
5-HT1B = 5-HT1B (Homo sapiens, UniProt P28222); conditions: read-out: binding affinity (Ki) 5-HT1B; cited from earlier work
5-HT1D = 5-HT1D (Homo sapiens, UniProt P28221); conditions: read-out: binding affinity (Ki) 5-HT1D; cited from earlier work
5-HT1D, sequence (P28221 whole entry, species assumed): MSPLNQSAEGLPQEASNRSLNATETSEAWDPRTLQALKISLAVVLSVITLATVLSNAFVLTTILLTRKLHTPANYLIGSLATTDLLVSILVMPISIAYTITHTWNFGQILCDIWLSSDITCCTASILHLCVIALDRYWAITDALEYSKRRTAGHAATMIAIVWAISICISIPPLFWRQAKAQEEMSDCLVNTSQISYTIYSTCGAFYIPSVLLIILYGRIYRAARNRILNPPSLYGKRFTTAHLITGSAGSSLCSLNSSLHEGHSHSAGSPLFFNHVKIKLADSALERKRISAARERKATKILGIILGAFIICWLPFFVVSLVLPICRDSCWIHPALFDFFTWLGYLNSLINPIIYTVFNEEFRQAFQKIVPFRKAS

5-HT6 = 5-HT6 (Homo sapiens, UniProt P50406); conditions: read-out: binding affinity (Ki) 5-HT6; cited from earlier work
5-HT6, sequence (P50406 whole entry, species assumed): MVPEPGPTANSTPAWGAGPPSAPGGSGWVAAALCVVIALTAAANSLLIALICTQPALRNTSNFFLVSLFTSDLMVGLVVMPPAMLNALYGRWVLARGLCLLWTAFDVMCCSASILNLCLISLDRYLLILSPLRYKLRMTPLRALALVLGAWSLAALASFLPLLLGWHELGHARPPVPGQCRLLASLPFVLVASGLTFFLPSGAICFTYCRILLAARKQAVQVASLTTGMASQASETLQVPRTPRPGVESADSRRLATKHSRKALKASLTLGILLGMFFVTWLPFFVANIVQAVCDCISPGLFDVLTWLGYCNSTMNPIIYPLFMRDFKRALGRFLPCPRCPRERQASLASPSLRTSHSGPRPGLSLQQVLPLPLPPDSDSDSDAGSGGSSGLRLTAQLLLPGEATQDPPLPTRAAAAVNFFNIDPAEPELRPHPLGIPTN

5-HT7 = 5-HT7 (Homo sapiens, UniProt P34969); conditions: read-out: binding affinity (Ki) 5-HT7; cited from earlier work
5-HT7, sequence (P34969 whole entry, species assumed): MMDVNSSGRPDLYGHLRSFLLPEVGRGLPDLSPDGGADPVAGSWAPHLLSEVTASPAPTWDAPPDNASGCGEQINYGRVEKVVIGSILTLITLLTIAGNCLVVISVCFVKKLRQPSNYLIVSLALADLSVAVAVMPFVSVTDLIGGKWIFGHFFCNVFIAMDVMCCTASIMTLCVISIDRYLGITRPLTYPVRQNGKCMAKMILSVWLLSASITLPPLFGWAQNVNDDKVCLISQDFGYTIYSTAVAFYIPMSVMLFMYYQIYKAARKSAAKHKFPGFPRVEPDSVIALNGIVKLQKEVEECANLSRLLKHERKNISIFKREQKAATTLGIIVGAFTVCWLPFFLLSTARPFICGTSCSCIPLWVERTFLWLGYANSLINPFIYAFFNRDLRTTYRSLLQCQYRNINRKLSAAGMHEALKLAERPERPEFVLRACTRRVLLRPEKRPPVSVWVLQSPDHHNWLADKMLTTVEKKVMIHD

Adrenergic Alpha1B = biological target: T1, Adrenergic Alpha1B (Homo sapiens, UniProt P35368); conditions: read-out: binding affinity (Ki) Adrenergic Alpha1B; cited from earlier work
T1 sequence (P35368 1-520): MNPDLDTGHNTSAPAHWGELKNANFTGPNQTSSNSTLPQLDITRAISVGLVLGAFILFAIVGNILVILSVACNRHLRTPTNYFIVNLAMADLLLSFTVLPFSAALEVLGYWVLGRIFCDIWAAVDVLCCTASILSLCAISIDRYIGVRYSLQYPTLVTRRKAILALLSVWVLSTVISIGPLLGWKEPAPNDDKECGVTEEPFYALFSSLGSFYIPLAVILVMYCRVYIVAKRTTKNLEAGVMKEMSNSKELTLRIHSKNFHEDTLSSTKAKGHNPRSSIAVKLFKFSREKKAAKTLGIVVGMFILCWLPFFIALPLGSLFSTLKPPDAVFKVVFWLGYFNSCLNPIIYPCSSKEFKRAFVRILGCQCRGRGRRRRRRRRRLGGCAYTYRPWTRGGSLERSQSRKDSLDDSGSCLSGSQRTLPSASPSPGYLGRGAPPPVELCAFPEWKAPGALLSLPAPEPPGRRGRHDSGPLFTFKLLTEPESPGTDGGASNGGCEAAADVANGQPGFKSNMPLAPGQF

5-HT5 = 5-HT5 (Homo sapiens, UniProt P47898); conditions: read-out: binding affinity (Ki) 5-HT5; cited from earlier work
5-HT5, sequence (P47898 whole entry, species assumed): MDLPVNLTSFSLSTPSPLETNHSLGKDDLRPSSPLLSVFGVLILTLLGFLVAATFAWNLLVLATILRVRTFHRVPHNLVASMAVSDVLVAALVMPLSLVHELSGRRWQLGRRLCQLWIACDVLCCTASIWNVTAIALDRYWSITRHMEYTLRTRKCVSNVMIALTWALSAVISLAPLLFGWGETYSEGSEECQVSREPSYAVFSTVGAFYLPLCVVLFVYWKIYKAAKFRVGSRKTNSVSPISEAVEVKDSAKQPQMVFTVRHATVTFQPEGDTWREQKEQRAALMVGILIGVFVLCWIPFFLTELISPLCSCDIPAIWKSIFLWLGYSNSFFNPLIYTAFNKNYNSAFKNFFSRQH

5-HT1A = biological target: T2, 5-HT1A (Homo sapiens, UniProt P08908); conditions: read-out: binding affinity (Ki) 5-HT1A; cited from earlier work
T2 sequence (P08908 1-422): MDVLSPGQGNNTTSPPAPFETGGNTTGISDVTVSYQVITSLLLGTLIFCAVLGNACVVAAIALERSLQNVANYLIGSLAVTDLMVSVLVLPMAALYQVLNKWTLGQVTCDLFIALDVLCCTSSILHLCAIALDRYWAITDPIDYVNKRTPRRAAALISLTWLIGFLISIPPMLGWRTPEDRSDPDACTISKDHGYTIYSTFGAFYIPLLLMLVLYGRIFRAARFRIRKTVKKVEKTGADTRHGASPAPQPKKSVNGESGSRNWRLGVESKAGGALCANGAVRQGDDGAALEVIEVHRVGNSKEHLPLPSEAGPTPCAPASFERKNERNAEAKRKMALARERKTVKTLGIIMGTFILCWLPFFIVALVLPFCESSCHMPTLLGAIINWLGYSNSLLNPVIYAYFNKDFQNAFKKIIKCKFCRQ

[1] = biological target: Norepinephrine Transporter (Homo sapiens, UniProt P23975); conditions: read-out: binding affinity (Ki) Norepinephrine Transporter; cited from earlier work
Norepinephrine Transporter, sequence (P23975 whole entry): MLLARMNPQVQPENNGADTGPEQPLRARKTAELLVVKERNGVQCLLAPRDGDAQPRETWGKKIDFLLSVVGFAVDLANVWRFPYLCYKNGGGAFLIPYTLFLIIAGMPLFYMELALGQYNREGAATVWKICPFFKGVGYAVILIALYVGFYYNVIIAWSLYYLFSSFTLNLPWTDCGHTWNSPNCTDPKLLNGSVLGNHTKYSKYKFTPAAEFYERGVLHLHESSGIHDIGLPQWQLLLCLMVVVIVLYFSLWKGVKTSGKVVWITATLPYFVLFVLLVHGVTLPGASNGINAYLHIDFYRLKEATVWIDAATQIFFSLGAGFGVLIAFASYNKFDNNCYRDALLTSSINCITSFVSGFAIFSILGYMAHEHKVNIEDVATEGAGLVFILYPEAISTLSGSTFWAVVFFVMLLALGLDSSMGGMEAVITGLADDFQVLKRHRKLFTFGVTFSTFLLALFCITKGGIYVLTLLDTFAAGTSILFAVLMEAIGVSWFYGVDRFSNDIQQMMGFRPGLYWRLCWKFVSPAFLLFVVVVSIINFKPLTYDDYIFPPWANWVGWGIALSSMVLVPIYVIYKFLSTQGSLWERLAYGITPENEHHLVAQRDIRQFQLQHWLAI

scn1lab mutant zebrafish [2] = experiment: Locomotion assay of high-velocity seizure-like swim behavior; assay type: in vivo, zebrafish (Danio rerio)
Description: Zebrafish maintenance. Zebrafish were raised under standard laboratory conditions in accordance with requirements outlined in the Guide for the Care and Use of Animals (ebrary Inc., 2011) and experiments were approved by the Institutional Animal Care and Use Committee (protocol #AN108659-03). Embryos were obtained by natural spawning of scn1lab (didy^s552) heterozygous animals that had been outcrossed to TL strain. Homozygous scn1lab mutants (n=2500) have dispersed melanosomes and appear visibly darker by 3 dpf compared to WT larvae.
Seizure monitoring. At 5 dpf individual zebrafish larvae were placed into a single well of a clear flat-bottomed 96-well microplate containing embryo media. Larvae were selected randomly as sex determination is not possible at this stage of development. All drug screening experiments were conducted in an unbiased manner by investigators blinded to the test compounds and all files coded for post hoc analysis. Microplates were placed inside the DanioVision and acclimated for 20 min at room temperature. Locomotion plots were obtained for each well at a recording epoch of 10 min using EthoVision XT software (DanioVision, Noldus Information Technology). Seizure scoring was performed using the following three-stage scale established for pentylenetetrazole-induced seizures: Stage 0, no or very little swim activity; Stage I, increased, brief bouts of swim activity; Stage II, rapid “whirlpool-like” circling swim behavior; and Stage III, paroxysmal whole-body clonus-like convulsions, and a brief loss of posture. WT fish are typically scored at Stage 0 or I. Plots were analyzed for distance travelled (in millimeters) and mean velocity (in millimeters per second). After 90 mins of drug exposure larvae were examined for toxic side-effects. Compounds that decreased or stopped the larva heartbeat, or reduced or eliminated the escape response when touched, were considered toxic.
Statistics. Data are presented as the mean±standard error of the mean (SEM), unless otherwise stated. For behavior analysis, the threshold for a change in mean swim velocity ≥40% (>1.5×SD of 250 control treated scn1lab) is considered significant. For comparison between more than two groups one-way ANOVA analysis was used. […] Differences considered statistically significant are indicated with asterisks (*P<0.05; **P<0.01).

5-HT Transporter = 5-HT Transporter (Homo sapiens, UniProt P31645); conditions: read-out: binding affinity (Ki) 5-HT Transporter; cited from earlier work
5-HT Transporter, sequence (P31645 whole entry, species assumed): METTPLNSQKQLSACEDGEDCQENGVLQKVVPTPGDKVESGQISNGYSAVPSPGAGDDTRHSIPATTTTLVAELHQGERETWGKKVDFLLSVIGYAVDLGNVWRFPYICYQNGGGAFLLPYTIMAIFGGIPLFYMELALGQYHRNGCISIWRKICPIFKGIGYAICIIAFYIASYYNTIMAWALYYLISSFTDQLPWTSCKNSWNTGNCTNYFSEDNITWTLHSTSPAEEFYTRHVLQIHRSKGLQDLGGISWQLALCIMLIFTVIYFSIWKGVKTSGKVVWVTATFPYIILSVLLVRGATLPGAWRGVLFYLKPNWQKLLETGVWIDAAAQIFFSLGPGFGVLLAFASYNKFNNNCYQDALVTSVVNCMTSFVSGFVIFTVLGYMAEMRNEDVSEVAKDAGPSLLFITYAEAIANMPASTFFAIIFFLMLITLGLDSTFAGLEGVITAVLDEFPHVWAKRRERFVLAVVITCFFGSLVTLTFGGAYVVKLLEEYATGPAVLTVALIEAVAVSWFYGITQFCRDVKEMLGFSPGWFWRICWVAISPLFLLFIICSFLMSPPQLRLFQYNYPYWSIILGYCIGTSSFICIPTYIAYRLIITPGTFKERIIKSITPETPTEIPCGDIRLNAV

scn1lab mutant zebrafish [3] = experiment: Local field potential (LFP) electrophysiology of electrographic seizure events; assay type: in vivo, zebrafish (Danio rerio)
Experimental: For electrophysiology studies, zebrafish larvae were anesthetized with cold and immobilized in 1.2% agarose; local field potential (LFP) recordings were obtained from forebrain or optic tectum structures using a single-electrode approach, as previously described (Baraban, S. C. et al., Neuroscience, 131, 759-768, 2005). Agarose-embedded LFP recording sessions of 10 min were obtained at 1 kHz. Epileptiform events were identified post hoc and defined as multi-spike or poly-spike upward or downward membrane deflections greater than 3× baseline noise level and 150-250 ms in duration (interictal-like) or greater than 5× baseline noise, multi-spike and >500 ms in duration (ictal-like); both events were counted using threshold detection settings in Clampfit (Molecular Devices; Sunnyvale, Calif.). During electrophysiology experiments larvae were continuously monitored for blood flow and heart rate using an Axiocam digital camera at video frame rate.
Monitoring electrographic brain activity to confirm seizure suppression is an essential assay to eliminate false positives from behavioral testing (Griffin, A. et al., Frontiers in Pharmacology, 9, 2018). By placing a microelectrode into a visually identified brain region of an agar-immobilized zebrafish larval, stable local field potential (LFP) recordings can be monitored for several hours (Baraban, S. C. et al., Nat Commun, 4, 2410, 2013). At 5 dpf LFP recordings of scn1Lab zebrafish larvae show an average of 250 abnormal electrographic seizure events during a 10 min recording epoch.

human 5-HT2AR = biological target: T3, human 5-HT2AR (Homo sapiens, UniProt P28223); conditions: read-out: binding affinity (Ki) 5-HT2A / 5-HT2AR, cited from earlier work
T3 construct: expressed in transfected cells
T3 sequence (P28223 whole entry): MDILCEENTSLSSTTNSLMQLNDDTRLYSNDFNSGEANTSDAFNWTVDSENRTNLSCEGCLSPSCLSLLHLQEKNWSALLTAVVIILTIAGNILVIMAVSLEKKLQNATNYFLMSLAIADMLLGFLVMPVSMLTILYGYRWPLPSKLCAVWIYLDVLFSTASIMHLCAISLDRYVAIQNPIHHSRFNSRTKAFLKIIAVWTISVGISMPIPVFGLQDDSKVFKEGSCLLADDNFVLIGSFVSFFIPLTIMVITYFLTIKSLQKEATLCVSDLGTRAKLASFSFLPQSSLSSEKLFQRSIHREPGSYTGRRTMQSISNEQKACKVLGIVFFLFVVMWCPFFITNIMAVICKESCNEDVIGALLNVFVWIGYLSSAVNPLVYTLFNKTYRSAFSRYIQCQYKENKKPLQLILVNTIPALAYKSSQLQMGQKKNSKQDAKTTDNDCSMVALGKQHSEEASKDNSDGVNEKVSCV

Histamine H3 = Histamine H3 (Homo sapiens, UniProt Q9Y5N1); conditions: read-out: binding affinity (Ki) Histamine H3; cited from earlier work
Histamine H3, sequence (Q9Y5N1 whole entry): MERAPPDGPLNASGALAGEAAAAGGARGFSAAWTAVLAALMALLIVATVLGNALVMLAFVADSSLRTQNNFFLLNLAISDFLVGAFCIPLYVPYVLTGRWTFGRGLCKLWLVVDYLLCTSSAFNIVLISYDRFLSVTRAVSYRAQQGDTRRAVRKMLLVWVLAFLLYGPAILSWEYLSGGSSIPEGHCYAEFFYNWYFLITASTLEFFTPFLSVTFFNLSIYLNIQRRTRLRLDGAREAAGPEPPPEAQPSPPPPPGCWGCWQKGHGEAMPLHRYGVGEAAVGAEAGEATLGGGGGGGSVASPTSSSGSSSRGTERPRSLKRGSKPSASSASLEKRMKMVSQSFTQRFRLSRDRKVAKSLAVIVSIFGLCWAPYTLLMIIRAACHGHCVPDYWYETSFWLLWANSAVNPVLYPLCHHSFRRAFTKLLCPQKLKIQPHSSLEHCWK

human 5-HT2BR = biological target: T4, human 5-HT2BR (Homo sapiens, UniProt P41595); conditions: known drugs and commercial compounds; read-out: binding affinity (Ki) 5-HT2B / 5-HT2BR; cited from earlier work
T4 construct: expressed in transfected cells
T4 sequence (P41595 whole entry): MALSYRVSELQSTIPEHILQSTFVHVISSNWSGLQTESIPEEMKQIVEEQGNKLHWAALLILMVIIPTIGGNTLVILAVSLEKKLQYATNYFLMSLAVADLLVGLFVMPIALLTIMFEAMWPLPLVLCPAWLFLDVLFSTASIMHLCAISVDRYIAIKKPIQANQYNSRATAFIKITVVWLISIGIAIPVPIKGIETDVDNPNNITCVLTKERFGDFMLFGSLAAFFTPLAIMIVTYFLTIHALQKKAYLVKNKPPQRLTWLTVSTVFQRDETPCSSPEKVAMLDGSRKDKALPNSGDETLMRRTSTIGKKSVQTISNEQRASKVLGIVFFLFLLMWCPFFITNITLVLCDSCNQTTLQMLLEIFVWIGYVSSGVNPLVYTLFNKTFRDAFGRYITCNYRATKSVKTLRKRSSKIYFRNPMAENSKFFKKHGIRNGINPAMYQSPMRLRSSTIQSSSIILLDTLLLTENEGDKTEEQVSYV

human 5-HT2CR = biological target: T5, human 5-HT2CR (Homo sapiens, UniProt P28335); conditions: known drugs and commercial compounds; read-out: binding affinity (Ki) 5-HT2C / 5-HT2CR; cited from earlier work
T5 construct: expressed in transfected cells
T5 sequence (P28335 33-458): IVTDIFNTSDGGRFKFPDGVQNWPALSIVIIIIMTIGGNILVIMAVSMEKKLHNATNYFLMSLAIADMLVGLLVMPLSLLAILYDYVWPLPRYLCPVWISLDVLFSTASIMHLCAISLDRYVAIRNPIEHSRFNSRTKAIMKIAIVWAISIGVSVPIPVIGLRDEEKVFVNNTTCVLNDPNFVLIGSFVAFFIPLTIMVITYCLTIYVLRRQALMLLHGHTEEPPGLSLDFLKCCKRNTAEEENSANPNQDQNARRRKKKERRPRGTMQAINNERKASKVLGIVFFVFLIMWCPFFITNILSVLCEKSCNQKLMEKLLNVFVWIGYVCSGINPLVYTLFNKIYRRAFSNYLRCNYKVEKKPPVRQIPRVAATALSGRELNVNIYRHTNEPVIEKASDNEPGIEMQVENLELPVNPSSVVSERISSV

human H1 receptor = human H1 receptor (Homo sapiens, UniProt P35367); conditions: read-out: binding affinity (Ki) Histamine H1; cited from earlier work
human H1 receptor, sequence (P35367 whole entry): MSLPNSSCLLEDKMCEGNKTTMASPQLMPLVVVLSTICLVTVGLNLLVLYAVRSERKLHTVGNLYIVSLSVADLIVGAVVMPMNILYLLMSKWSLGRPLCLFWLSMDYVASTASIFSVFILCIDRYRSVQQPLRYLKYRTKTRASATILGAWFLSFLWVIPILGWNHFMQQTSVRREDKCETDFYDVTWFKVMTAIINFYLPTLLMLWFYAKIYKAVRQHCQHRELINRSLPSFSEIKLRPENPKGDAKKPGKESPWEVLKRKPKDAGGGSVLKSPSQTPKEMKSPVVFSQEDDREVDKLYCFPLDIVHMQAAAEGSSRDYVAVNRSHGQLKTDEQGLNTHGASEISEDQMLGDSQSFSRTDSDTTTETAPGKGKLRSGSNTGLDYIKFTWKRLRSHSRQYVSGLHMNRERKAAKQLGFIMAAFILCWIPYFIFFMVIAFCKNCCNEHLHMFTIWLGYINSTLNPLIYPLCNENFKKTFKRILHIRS

CCNC(C)Cc1cccc(C(F)(F)F)c1 (centres unmarked) [FEN]
Ki (5-HT1B): 1.84 µM | Ki (5-HT1D): 1.26 µM | Ki (5-HT6): 9.08 µM | Ki (5-HT7): 7.31 µM | Ki (Adrenergic Alpha1B): 0.142 µM

C[C@H]1CNCCc2ccc(Cl)cc21 [LOR]
Ki (5-HT5): 3.71 µM | Ki (5-HT1A): 0.7 µM | Ki [1]: 1.4 µM | Ki (5-HT6): 1.98 µM | Ki (5-HT7): 0.636 µM

CC(N)Cc1ccc2ccoc2c1 (centres unmarked) [Compound 6-APB, 6-APB]
effect on seizure-like swim behavior (change in mean velocity) (scn1lab mutant zebrafish [2]; commercial 5-HT2BR/dopamine agonists, three concentrations, 30 and 90 min exposure, threshold ≥40%): suppressed convulsive swim behaviors in a concentration-dependent manner | Ki (5-HT1A): 1.28 µM | Ki (5-HT Transporter): 2.7 µM | frequency of electrographic seizure (epileptiform) events (scn1lab mutant zebrafish [3]; 250 μM, 10 min LFP recording, 5 dpf larvae): significant changes in the frequency of events; also recorded: significantly suppressed the frequency of electrographic seizure events | Ki (5-HT7): 0.155 µM | Ki (human 5-HT2AR; known drugs and commercial compounds): 1.93 µM

Clc1ccc(Cn2c(CN3CCCC3)nc3ccccc32)cc1 [clemizole]
inhibition of spontaneous convulsive behaviors (scn1lab mutant zebrafish [2]; phenotype-based screen): effective inhibitor | Ki (Histamine H3): 0.402 µM | Ki (human 5-HT2BR): 0.025 µM | inhibition of electrographic seizures (scn1lab mutant zebrafish [3]; phenotype-based screen): effective inhibitor | Ki (human 5-HT2CR): 0.197 µM | Ki (human 5-HT2AR): 0.239 µM | Ki (human H1 receptor): 0.0013 µM
